Experimental findings from paper PMC12586182 (Frontiers in Oncology, 2025) are described below.

The target in experiment [1] is T1, RSK1 (Homo sapiens, UniProt Q15418).
T1 construct: purchased Carna Biosciences
Briefly: Kinase panel profiling at 1 µmol/L (mobility shift assay, Carna). The class given is biochemical. The settings on record: 1 µmol/L of BTK inhibitor.

Experiment [2] concerns the target T2, DCAMKL2 (Homo sapiens, UniProt Q8N568).
T2 construct: purchased Carna Biosciences
T2 sequence (Q8N568 1-766): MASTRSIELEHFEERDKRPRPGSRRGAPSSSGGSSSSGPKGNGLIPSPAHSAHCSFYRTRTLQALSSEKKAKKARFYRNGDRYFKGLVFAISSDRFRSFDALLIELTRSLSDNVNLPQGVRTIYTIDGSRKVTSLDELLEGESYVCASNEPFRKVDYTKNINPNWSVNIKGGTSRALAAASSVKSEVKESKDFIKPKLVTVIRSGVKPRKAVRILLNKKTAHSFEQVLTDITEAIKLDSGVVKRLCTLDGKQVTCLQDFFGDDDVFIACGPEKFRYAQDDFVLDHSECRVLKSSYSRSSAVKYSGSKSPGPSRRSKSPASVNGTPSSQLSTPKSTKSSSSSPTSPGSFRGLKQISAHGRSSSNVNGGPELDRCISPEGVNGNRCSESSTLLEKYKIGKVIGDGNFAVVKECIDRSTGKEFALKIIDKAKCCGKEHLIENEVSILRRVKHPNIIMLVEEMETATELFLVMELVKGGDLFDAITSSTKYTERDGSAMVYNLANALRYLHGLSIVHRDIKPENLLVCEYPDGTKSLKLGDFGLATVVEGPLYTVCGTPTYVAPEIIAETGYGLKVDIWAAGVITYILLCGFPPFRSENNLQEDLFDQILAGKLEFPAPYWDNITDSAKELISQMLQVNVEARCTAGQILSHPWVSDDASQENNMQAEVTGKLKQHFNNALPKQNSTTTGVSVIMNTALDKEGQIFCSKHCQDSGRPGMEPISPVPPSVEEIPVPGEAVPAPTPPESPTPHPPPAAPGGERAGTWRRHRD
Described as above. The class given is biochemical. The settings on record: 1 µmol/L of BTK inhibitor.

Experiment [3] deals with FGFR3 (Homo sapiens, UniProt P22607). The experiment can be described thus: Kinase enzyme activity assay (mobility shift assay, Carna). The note with it: for Percentage inhibition of kinase enzyme activity: FGFR3, 1 µmol/L of BTK inhibitor.
Experiment [4] addresses T3, MSK1 (Homo sapiens, UniProt O75582).
T3 construct: purchased Carna Biosciences
The experiment can be described thus: Kinase panel profiling at 1 µmol/L (mobility shift assay, Carna). The settings on record: 1 µmol/L of BTK inhibitor. The class given is biochemical.

Experiment [5] concerns the target T4, MARK4 (Homo sapiens, UniProt Q96L34).
T4 construct: purchased Carna Biosciences
T4 sequence (Q96L34 1-752): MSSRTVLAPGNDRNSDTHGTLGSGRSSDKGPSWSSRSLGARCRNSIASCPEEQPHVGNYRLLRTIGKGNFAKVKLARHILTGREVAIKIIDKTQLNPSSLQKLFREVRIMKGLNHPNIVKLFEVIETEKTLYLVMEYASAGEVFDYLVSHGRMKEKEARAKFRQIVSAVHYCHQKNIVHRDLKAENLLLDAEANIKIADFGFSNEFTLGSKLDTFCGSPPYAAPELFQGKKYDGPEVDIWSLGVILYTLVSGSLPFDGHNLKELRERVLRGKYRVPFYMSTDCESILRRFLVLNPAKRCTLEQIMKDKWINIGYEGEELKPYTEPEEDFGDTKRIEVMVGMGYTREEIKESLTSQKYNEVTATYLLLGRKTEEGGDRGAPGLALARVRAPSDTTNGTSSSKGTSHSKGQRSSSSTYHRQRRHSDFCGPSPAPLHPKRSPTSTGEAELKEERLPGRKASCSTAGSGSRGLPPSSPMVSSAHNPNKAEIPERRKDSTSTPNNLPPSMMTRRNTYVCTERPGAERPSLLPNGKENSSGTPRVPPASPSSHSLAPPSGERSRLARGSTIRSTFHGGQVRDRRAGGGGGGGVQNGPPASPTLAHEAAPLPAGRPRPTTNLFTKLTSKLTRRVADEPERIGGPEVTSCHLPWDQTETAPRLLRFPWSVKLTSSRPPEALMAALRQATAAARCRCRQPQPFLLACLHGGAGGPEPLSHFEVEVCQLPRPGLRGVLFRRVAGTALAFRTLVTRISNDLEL
The description is as above. It is filed as biochemical. The note with it: 1 µmol/L of BTK inhibitor.

In experiment [6] the target is T5, MST4 (Homo sapiens, UniProt Q9P289).
T5 construct: purchased Carna Biosciences
The description is as above. It is filed as biochemical. The note with it: 1 µmol/L of BTK inhibitor.

Experiment [7] has as its target FGFR2 (Homo sapiens, UniProt P21802). Briefly: Kinase enzyme activity assay (mobility shift assay, Carna). The note with it: for Percentage inhibition of kinase enzyme activity: FGFR2, 1 µmol/L of BTK inhibitor.
Experiment [8] addresses T6, RSK2 (Homo sapiens, UniProt P51812).
T6 construct: purchased Carna Biosciences
The experiment can be described thus: Kinase panel profiling at 1 µmol/L (mobility shift assay, Carna). It is filed as biochemical. The settings on record: 1 µmol/L of BTK inhibitor.

The target in experiment [9] is T7, CDK4/CycD3 (Homo sapiens, UniProt P11802).
T7 construct: purchased Carna Biosciences
Described as above. It is filed as biochemical. The note with it: 1 µmol/L of BTK inhibitor.

The target of experiment [10] is T8, EPHA3 (Homo sapiens, UniProt P29320).
T8 construct: purchased Carna Biosciences
T8 sequence (P29320 21-983): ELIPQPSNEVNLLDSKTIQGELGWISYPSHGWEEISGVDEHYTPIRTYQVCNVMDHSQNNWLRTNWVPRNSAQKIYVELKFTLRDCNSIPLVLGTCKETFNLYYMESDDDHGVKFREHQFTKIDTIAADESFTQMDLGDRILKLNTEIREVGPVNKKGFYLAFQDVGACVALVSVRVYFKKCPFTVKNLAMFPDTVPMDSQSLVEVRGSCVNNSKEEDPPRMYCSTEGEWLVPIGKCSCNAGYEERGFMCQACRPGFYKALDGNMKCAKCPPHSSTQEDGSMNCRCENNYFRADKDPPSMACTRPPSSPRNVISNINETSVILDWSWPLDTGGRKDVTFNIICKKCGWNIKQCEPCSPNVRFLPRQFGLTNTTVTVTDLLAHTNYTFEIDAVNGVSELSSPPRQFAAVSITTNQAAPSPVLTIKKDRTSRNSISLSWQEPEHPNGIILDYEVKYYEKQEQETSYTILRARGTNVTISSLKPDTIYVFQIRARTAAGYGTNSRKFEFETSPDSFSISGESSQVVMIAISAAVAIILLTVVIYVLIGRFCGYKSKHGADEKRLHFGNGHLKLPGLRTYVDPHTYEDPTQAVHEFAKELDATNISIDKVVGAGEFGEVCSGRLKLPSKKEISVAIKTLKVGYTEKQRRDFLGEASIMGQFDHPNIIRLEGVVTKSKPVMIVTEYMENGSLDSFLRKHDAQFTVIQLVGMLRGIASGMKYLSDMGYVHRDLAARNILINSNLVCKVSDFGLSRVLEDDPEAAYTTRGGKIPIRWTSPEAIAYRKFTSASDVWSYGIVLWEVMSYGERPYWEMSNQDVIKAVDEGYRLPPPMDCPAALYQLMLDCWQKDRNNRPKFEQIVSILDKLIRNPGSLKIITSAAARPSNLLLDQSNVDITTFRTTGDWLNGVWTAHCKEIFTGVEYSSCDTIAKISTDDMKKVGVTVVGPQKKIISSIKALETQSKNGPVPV
The experiment is described as above. The class given is biochemical. The settings on record: 1 µmol/L of BTK inhibitor.

Sequence of FGFR2 (P21802 22-821): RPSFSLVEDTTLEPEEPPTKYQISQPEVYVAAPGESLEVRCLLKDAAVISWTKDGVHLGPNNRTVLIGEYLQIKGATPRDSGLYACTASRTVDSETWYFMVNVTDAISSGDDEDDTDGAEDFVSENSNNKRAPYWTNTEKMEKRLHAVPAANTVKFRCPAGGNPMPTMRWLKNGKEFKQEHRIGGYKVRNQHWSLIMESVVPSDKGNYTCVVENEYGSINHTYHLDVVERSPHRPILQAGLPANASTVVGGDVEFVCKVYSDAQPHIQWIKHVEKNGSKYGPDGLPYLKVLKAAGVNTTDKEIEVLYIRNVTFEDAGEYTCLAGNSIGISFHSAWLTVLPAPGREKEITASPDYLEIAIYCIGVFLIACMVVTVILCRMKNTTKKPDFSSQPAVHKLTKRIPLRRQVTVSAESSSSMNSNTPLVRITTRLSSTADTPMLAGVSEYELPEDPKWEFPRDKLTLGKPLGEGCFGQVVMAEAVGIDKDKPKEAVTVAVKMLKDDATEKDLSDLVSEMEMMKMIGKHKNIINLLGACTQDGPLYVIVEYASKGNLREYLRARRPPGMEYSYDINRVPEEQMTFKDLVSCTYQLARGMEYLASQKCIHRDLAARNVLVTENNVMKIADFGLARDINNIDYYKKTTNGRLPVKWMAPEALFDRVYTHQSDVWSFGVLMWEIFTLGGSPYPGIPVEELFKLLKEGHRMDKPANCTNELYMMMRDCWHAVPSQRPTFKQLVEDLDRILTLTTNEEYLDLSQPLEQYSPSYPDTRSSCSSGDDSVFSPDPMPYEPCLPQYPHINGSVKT
T3 sequence (O75582 whole entry): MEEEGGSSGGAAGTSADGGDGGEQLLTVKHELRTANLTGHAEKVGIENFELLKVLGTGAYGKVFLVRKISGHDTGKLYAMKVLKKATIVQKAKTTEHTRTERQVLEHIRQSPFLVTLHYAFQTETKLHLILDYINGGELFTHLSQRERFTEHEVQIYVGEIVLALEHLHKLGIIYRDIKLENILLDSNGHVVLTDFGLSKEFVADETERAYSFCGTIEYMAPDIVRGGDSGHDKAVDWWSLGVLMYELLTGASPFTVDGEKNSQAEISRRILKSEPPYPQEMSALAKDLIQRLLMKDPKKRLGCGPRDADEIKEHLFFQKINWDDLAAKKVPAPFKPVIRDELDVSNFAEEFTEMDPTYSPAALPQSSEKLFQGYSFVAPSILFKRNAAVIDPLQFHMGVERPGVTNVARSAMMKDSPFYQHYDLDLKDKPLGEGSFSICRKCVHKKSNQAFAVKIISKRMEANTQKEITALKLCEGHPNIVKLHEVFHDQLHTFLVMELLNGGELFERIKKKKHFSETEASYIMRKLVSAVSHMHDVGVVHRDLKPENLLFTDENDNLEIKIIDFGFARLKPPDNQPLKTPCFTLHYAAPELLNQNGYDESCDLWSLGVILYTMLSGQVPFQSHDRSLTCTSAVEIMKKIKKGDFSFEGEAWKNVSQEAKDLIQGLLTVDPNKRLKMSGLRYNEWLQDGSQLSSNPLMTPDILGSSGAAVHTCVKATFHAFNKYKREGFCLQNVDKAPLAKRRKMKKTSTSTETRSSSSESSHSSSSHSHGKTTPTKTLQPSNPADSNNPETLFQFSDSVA
Sequence of FGFR3 (P22607 23-806): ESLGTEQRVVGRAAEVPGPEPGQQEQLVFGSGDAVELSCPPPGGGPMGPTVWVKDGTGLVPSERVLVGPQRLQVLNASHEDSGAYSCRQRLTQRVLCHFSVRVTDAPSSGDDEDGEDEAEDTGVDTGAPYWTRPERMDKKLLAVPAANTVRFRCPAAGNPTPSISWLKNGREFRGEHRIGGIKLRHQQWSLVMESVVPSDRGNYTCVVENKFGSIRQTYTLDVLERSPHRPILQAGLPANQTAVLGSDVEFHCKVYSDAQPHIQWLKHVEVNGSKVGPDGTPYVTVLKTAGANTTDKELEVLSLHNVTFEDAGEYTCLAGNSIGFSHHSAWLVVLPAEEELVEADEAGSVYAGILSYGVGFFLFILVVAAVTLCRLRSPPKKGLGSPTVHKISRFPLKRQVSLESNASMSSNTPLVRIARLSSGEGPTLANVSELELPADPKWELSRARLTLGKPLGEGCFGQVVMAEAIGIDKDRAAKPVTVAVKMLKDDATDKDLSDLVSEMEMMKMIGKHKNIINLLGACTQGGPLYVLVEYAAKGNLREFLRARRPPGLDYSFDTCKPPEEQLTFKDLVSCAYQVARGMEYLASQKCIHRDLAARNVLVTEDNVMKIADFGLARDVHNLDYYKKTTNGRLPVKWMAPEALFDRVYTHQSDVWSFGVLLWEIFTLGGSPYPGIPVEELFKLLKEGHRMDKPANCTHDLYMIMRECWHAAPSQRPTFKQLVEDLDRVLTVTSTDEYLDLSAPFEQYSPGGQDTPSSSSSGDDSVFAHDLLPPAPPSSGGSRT
T7 sequence (P11802 whole entry): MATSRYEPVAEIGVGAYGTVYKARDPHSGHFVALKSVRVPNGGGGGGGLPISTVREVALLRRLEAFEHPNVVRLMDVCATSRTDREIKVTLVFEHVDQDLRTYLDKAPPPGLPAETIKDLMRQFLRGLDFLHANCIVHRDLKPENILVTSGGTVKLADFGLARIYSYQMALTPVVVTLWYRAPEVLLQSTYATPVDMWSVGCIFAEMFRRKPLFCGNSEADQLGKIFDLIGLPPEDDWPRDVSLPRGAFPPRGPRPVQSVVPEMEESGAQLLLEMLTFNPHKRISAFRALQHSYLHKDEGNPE
T7 sequence (P30281 whole entry partner): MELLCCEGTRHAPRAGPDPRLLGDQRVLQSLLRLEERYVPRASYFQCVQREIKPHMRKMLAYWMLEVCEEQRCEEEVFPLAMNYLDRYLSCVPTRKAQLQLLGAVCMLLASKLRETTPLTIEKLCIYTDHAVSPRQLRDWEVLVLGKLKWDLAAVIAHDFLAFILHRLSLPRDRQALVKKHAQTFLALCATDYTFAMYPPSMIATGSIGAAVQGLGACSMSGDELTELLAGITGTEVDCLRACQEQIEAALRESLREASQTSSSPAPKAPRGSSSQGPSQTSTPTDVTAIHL
T1 sequence (Q15418 whole entry): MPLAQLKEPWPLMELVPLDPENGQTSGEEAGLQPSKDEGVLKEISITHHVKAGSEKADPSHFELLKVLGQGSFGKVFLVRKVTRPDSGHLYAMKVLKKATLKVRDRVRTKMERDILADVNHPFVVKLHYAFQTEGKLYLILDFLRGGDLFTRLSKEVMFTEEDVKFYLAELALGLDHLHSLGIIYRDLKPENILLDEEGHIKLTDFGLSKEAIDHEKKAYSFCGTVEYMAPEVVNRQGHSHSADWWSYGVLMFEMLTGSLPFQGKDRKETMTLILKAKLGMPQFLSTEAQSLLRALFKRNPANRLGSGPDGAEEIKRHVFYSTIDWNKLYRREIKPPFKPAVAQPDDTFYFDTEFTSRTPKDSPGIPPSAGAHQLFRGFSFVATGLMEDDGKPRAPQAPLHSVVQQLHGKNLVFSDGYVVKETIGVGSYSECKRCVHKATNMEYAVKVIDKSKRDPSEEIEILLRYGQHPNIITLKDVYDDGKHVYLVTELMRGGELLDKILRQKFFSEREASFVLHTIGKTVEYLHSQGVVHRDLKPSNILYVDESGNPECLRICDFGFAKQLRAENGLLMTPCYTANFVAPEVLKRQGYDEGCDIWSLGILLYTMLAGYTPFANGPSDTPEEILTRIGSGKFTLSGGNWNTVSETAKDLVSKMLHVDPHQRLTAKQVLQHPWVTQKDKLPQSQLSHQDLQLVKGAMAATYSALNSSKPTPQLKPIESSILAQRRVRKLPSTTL
T6 sequence (P51812 whole entry): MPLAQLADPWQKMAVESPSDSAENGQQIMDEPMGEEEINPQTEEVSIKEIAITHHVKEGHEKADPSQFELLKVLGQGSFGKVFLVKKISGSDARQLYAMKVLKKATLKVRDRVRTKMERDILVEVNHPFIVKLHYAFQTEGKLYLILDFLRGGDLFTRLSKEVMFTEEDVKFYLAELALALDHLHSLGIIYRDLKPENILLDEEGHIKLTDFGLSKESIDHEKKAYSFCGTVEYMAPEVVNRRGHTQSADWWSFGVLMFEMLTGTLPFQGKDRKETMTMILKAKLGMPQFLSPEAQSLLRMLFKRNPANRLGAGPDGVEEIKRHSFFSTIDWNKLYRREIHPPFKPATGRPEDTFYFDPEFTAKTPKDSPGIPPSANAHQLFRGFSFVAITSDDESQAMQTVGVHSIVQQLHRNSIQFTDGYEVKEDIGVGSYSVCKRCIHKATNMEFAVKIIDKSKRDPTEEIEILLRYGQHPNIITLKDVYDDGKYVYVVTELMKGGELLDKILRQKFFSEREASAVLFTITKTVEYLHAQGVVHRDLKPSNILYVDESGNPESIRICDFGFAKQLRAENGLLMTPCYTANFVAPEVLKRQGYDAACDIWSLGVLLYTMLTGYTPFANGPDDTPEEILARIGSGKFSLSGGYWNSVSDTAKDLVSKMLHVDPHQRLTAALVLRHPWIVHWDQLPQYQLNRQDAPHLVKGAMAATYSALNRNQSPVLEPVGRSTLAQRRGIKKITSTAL
T5 sequence (Q9P289 whole entry): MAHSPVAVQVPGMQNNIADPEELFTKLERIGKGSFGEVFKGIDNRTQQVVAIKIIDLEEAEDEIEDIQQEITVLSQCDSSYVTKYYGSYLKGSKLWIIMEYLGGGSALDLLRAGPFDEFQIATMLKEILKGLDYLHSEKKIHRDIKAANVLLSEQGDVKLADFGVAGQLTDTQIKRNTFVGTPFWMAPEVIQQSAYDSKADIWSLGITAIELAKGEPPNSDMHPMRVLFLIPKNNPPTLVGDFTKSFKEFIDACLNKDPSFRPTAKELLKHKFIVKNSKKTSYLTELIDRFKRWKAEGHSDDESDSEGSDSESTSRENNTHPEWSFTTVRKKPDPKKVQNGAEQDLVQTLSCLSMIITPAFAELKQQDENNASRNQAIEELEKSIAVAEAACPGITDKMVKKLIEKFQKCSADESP

Turning to `CC#CC(=O)N1CCC[C@H]1c1nc(-c2ccc(C(=O)Nc3ccccn3)cc2)c2c(N)nccn12` [acalabrutinib], the “Percentage inhibition of kinase enzyme activity” value (“Percentage inhibition” below) was 3.57% in [1]; 4.63% in experiment [2]; -1.31% in experiment [3]; -7.68% in experiment [4]; -15.24% in [5]; -6.42% in experiment [6]. Further, the “Percentage inhibition” value was -6.22% in experiment [7], 0.054% in experiment [8], -13.28% in experiment [9] and -2.07% in [10].

Consider `COc1ccc(F)cc1C(=O)NCc1ccc(-c2nn([C@@H](C)C(F)(F)F)c(N)c2C(N)=O)cc1` [pirtobrutinib], for which the “Percentage inhibition” value in experiment [1] is given as 5.53%; in experiment [2], 0.08%; in [3], 1.40%; in experiment [4], 4.32%; in [5], -2.93%; in experiment [6], -7.97%. The “Percentage inhibition” value in experiment [7] was 12.14%; in experiment [8] it was 2.95%; in [9], 4.05%; in [10] it was -5.46%.

In the case of `C=CC(=O)N1CCC[C@@H](n2nc(-c3ccc(Oc4ccccc4)cc3)c3c(N)ncnc32)C1` [ibrutinib], the “Percentage inhibition” value in [1] was 5.47%; in experiment [2], -9.45%; in experiment [3], 81.85%; in [4], -1.18%; in experiment [5], -14.26%; in experiment [6] it was 1.46%. In addition, the “Percentage inhibition” value in experiment [7] worked out at 81.29%; in [8], 7.41%; in experiment [9], 4.00%; in [10] it was 3.80%.

For the compound `O=C(c1ccc(Oc2ccccc2)cc1Cl)c1c[nH]c2ncnc(N[C@@H]3CC[C@@H](CO)OC3)c12` [nemtabrutinib], the “Percentage inhibition” value in experiment [1] was 17.84%; in experiment [2], -1.82%; in experiment [3], 86.25%; in [4], 11.30%; in experiment [5], 20.90%; in experiment [6], 57.51%. The “Percentage inhibition” value in [7] is on record as 45.29%; in experiment [8], 7.48%; in experiment [9], 0.33%; in [10] it was 50.57%. Besides, the IC50 in experiment [3] worked out at 70.1 nM; in experiment [7], 34 nM.

Take `C=CC(=O)N1CCC([C@@H]2CCNc3c(C(N)=O)c(-c4ccc(Oc5ccccc5)cc4)nn32)CC1` [zanubrutinib]: the “Percentage inhibition” value in [3] is on record as 6.11%; in [4], 0.57%; in experiment [7], 1.70%; in experiment [10] it was -0.20%.
